# Assay results as given in paper PMC8486872, “A rational blueprint for the design of chemically-controlled protein switches” (Nature Communications, 2021).
# Where “and” joins values, the source holds several entries; their conditions need not be identical. Identical values can stand only once.
# What was measured:
# [1] = molecular target: T1, LD3 in the presence of Drug-1 (Homo sapiens, UniProt Q07817, DEL45-84/F105I/R102E); assay: SPR pre-screening and competition of Drug-1 resistant Bcl-XL mutants binding LD3; details: Fig S10d
# T1 construct: 6xHis (N); made in house; host or cells: E. coli BL21(DE3)
# Protocol: Supplementary Figure 10: Biophysical and cellular characterization of designed Drug-1- […]
# a) Pre-screening of Drug-1 resistant Bcl-XL mutants by SPR. 5 µM of Bcl-XL and five mutants were mixed with 10 µM of Drug-1 and injected over the LD3 immobilized chip to analyse the binding response. […]
# dilutions of Drug-1 were pre-mixed with 4 µM LD3 and injected over iBcl-XL_v3 immobilized chip to collect the response. c) Dissociation constant measurement of iBcl-XL_v3 and LD3. Sensorgrams are in black dashed curves and the fitted curves in solid red lines. Kd was using a 1:1 binding model. d) […]
# normalized to the positive control (DMSO group). […]
# [2] = test system: Bcl-XL:LD3 complex (CDH-1); assay: SPR drug competition assay, Bcl-XL:LD3 (CDH-1) with Drug-1; format: binding; details: Fig S10d
# Protocol: Drug IC50s of disrupting CDH heterodimers were measured on a Biacore 8 K device. 4 µM of LD3 and its variants (LD3_v1-3) or LD6 were mixed with their respective drugs. […] Multiple-cycle injection of the protein-drug complex with different stoichiometry were performed to measure the decrease of maximal RUs (response units at 120 sec). Apparent IC50s were obtained using the inhibition versus response fitting models in prism software (Version 8.3.0).
# Apparent IC50s of SPR drug competition assay were calculated using three-parameter nonlinear regression in GraphPad Prism (Version 8.3.0). Representative data of cellular assays are presented as individual values and mean values (bars). n = 3 refers to biological replicates. All IC50/EC50 values of cellular assays (CDH-TF, CDH-GEMS, AIR-TF and AIR-GEMS) reported were calculated using four-parameter nonlinear regression ± s.d. […]
# Readouts from the
# sensorgrams were extracted at the time point 120 s to calculate the IC50s using a three-parameter
# [3] = test system: SEAP and Luciferase expression in HEK293T cells; assay: SIMO designer cells (AIR-1/2-GEMS + CDH-1/2-TF); format: cell-based; details: for SEAP / Luciferase: Fig5h; for SEAP: turn ON via AIR-1-GEMS; for Luciferase: via CDH-1-TF
# Excerpt: Fig. 5 Orthogonal chemical switches enable implementation of multi-input multi-output control modes in mammalian cells. a Scheme of multi-inputs multi-outputs (MIMO) designer cells where two drugs control two different outputs. b, c Cells were co-transfected with AIR-1/2-GEMS and CDH-3-TF regulate SEAP and Luciferase expression, respectively. […] AIR-1/2-GEMS coupled with SEAP expression circuits were co-transfected with CDH-1/2-TF circuits which control the Luciferase production. Respective drug concentrations ranged from 0.001 nM to 1 µM. All values presented are mean ± s.d. of three replicates and curves were fitted by four-parameters nonlinear regression. b, c, e, f, h, i Source data are available in the source data file.
# Finally, we engineered SIMO cells (Fig. 5g) using two designed switches that produce ON and OFF responses upon exposure to the same drug. We transfected cells with combinations of AIR-GEMS and CDH-TFs which controlled the expression of the reporter proteins SEAP and Luciferase, respectively. […] Therefore, computational design expanded the repertoire of protein switches controlled by the same compounds that can be used to simultaneous turn ON and OFF synergistic outputs. […]
# AIR-1-GEMS coupled with SEAP expression circuits (i) and CDH-1-TF circuits which control the Luciferase production (j). j-k) Quantification of SEAP and Luciferase activities under Drug-2. AIR-2-GEMS coupled with SEAP expression circuits (k) and CDH-2-TF circuits which control the Luciferase production (l). b-k) Each data point represents the mean of n = 3 biological replicates, and the dose-dependent curve were fitted using four-parameter nonlinear regression.
# T1 sequence (Q07817 with tags, fused parts or gaps DEL45-84/R102E/F105I limits assumed): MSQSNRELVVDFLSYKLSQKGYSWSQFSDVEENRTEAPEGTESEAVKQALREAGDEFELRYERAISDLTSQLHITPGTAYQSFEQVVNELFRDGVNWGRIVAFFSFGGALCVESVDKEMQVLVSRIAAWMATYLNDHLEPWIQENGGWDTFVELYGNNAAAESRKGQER
structure (smiles),measurement,setting,value
"CN(C)CC#Cc1ccc(OCCCc2sc(N3CCc4cccc(C(=O)Nc5nc6ccccc6s5)c4C3)nc2C(=O)O)c(F)c1 [Drug-1, A-1155463]",iBcl-XL_v3 response,[1]; Drug-1 0.001 nM,174.876 and 175.206 and 177.174
same,iBcl-XL_v3 response,[1]; Drug-1 0.01 nM,215.202 and 222.394 and 221.188
same,iBcl-XL_v3 response,[1]; Drug-1 0.05 nM,207.736 and 204.171 and 203.036
same,iBcl-XL_v3 response,[1]; Drug-1 0.1 nM,189.507 and 193.343 and 194.134
same,iBcl-XL_v3 response,[1]; Drug-1 0.5 nM,204.985 and 206.922 and 206.979
same,iBcl-XL_v3 response,[1]; Drug-1 1 nM,184.864 and 185.609 and 186.635
same,iBcl-XL_v3 response,[1]; Drug-1 10 nM,194.117 and 193.916 and 200.456
same,iBcl-XL_v3 response,[1]; Drug-1 50 nM,193.965 and 195.069 and 198.505
same,iBcl-XL_v3 response,[1]; Drug-1 100 nM,183.254 and 186.244 and 183.907
same,iBcl-XL_v3 response,[1]; Drug-1 500 nM,165.059 and 166.616 and 165.103
same,iBcl-XL_v3 response,[1]; Drug-1 1000 nM,154.762 and 156.9 and 154.341
same,IC50,"[1]; iBcl-XL_v3, best-fit, inhibitor vs. response (three parameters)",705 nM
same,logIC50,"[1]; iBcl-XL_v3, best-fit, three parameters, Drug-1 in nM",2.848
same,IC50,"[2]; Bcl-Xl:LD3, best-fit, inhibitor vs. response (three parameters)",0.22 nM
same,logIC50,"[2]; Bcl-Xl:LD3, best-fit, three parameters, Drug-1 in nM",-0.658
same,Bcl-Xl:LD3 response,[2]; Drug-1 0.001 nM,275.326 and 251.306 and 243.642
same,Bcl-Xl:LD3 response,[2]; Drug-1 0.005 nM,242.985 and 229.287 and 224.833
same,Bcl-Xl:LD3 response,[2]; Drug-1 0.01 nM,223.576 and 215.113 and 215.946
same,Bcl-Xl:LD3 response,[2]; Drug-1 0.05 nM,225.211 and 226.402 and 224.55
same,Bcl-Xl:LD3 response,[2]; Drug-1 0.1 nM,186.039 and 182.298 and 182.078
same,Bcl-Xl:LD3 response,[2]; Drug-1 0.5 nM,123.883 and 120.417 and 119.693
same,Bcl-Xl:LD3 response,[2]; Drug-1 1 nM,121.627 and 115.582 and 111.718
same,Bcl-Xl:LD3 response,[2]; Drug-1 5 nM,122.215 and 115.477 and 118.457
same,Bcl-Xl:LD3 response,[2]; Drug-1 10 nM,92.0281 and 92.2496 and 88.1833
same,Bcl-Xl:LD3 response,[2]; Drug-1 50 nM,84.1354 and 86.416 and 84.392
same,Bcl-Xl:LD3 response,[2]; Drug-1 100 nM,81.6073 and 77.884 and 79.2329
same,Bcl-Xl:LD3 response,[2]; Drug-1 500 nM,65.1408 and 62.8874 and 62.5965
same,Bcl-Xl:LD3 response,[2]; Drug-1 1000 nM,42.6601 and 38.7292 and 40.0074
same,SEAP and Luciferase outputs in SIMO cells,[3]; 0.001 nM to 1 µM,simultaneously activated SEAP production and suppressed the expression of Luciferase
same,SEAP,[3]; 0.001 nM,19.8743 U/L and 19.5134 U/L and 15.1383 U/L
same,SEAP,[3]; 0.005 nM,19.2907 U/L and 17.6338 U/L and 18.8337 U/L
same,SEAP,[3]; 0.01 nM,18.6271 U/L and 21.8407 U/L and 37.1349 U/L
same,SEAP,[3]; 0.05 nM,37.9776 U/L and 52.7802 U/L and 54.2278 U/L
same,SEAP,[3]; 0.1 nM,39.7647 U/L and 50.8999 U/L and 76.4896 U/L
same,SEAP,[3]; 0.5 nM,46.7816 U/L and 46.7958 U/L and 68.9342 U/L
same,SEAP,[3]; 1 nM,36.1123 U/L and 44.1109 U/L and 47.7004 U/L
same,SEAP,[3]; 5 nM,163.102 U/L and 218.766 U/L and 249.722 U/L
same,SEAP,[3]; 10 nM,315.129 U/L and 324.74 U/L and 353.471 U/L
same,SEAP,[3]; 50 nM,364.997 U/L and 306.053 U/L and 339.025 U/L
same,SEAP,[3]; 100 nM,443.801 U/L and 453.931 U/L and 405.497 U/L
same,SEAP,[3]; 500 nM,488.063 U/L and 432.803 U/L and 436.708 U/L
same,SEAP,[3]; 1000 nM,411.613 U/L and 466.826 U/L and 364.664 U/L
same,Luciferase,[3]; 0.005 nM,13170 and 13560 and 13671
same,Luciferase,[3]; 0.01 nM,14134 and 13430 and 12324
same,Luciferase,[3]; 0.05 nM,14625 and 13685 and 11174
